Measurements taken from patent US12558326B2, “Method for treating epilepsy” (Xenon Pharmaceuticals Inc., priority 2018, dated 2026).
“And” between values parts separate entries of the source, which are not always exact repeats. Equal entries are not always repeated.

How the values were obtained:
[1] = Brain and plasma distribution after the 6 Hz assay (UHPLC-ESI-MS/MS); assay type: in vivo, mouse; settings: 20 mg/kg IP, total concentration, sampled immediately after 6 Hz assay (one hour post dose)
Method: Pharmacological distribution and bioanalysis. Immediately following characterization of seizure behaviors in the 6 Hz assay, animals were humanely sacrificed and brain and plasma samples were collected for analysis of the distribution of the administered compounds to these tissue compartments.
Brain sample homogenization. Pre-weighed whole mouse brains were thawed and 1 mL of deionized water and 1 mL of acetonitrile were added to each sample vial containing brain tissue. The samples were homogenized using a hand-held Omni™ TH homogenizer (Omni International, Kennesaw, GA, USA) until a uniform slurry was obtained. 1 mL aliquots of the slurry were transferred to clean 1.5 mL plastic Eppendorf tubes and the tubes were centrifuged at 13,000 rpm (15,871×g) for 20 minutes. The supernatant was collected and stored in clean labelled plastic Eppendorf vials at −80° C.
Mouse plasma and brain homogenate sample preparation. Mouse brain homogenates and mouse plasma samples, as well as calibration standards and QC samples prepared from control (“blank”) untreated mouse plasma, were extracted by protein precipitation. Briefly, 50 μL of each brain homogenate and mouse plasma sample (as well as each calibration standard, QC sample and blank mouse plasma sample) was mixed with 50 μL of internal standard solution [a 2,500 ng/mL solution of (S)-5-((1-benzylpyrrolidin-3-yl)(methyl)amino)-6-methyl-N-(thiazol-4-yl)pyridine-2-sulfonamide in deionized water/acetonitrile (1:1 v/v)], followed by addition of 50 μL of 6% (v/v) phosphoric acid in water. This was followed by the addition of 200 μL of acetonitrile. The samples were vortexed for 30 seconds and then centrifuged for 20 min at 13,000 rpm (15,871×g). The supernatants were further diluted four-fold with acetonitrile:water (1:1 v/v) and transferred to a 96-well plate prior to analysis. Calibration and QC samples were prepared in blank K2EDTA mouse plasma in the concentration range from 2.3 ng/mL to 4800 ng/mL with QC samples, including low QC (14 ng/mL), mid QC (225 ng/mL), and high QC (3600 ng/mL).
UHPLC-ESI-MS/MS analysis. Samples were then analyzed by ultra-high pressure liquid chromatography/electrospray ionization tandem mass spectroscopy (UHPLC-ESI MS/MS) using a Sciex™ TQ-5500 (AB Sciex™ LP, Concord, ON, Canada) mass spectrometer equipped with a Shimadzu Nexera™ UHPLC pump, column compartment and auto-sampler (Shimadzu Scientific Instruments, Inc., Columbia, MD, USA), using a binary gradient elution starting with 80% water (A)/20% acetonitrile (B), both solvents containing 0.1% formic acid. After 0.6 minutes, mobile phase B was increased linearly to 100% to 1 minute and elution was maintained at 100% mobile phase B until 1.5 minutes, and then allowed to re-equilibrate at the initial ration of 80% mobile phase A and 20% mobile phase B for a total run time of 2.5 minutes at a flow rate of 0.4 mL/min. The column used was ACE Excel™ 2 C18-PFP (2.1 mm i.d.×[…], 2 μm particle size)(Advanced Chromatography Technologies Ltd, Aberdeen, Scotland). The analytes and the internal standard were ionized by electrospray in the positive ion mode and detected by multiple reaction monitoring (MRM) using the transitions listed in Table 1.

DBA/2 mice = experiment: Audiogenic seizure test in DBA/2 mice; assay type: in vivo, mouse; settings: for Clonic Convulsion Incidence / Tonic Extension Incidence / Wild Running Incidence / Clonic Convulsion Latency / Tonic Extension Latency / Wild Running Latency / Audiogenic Response Score: 60 min prior; for Clonic Convulsion Incidence / Tonic Extension Incidence / Wild Running Incidence / Audiogenic Response Score: n=10; for Clonic Convulsion Latency / Tonic Extension Latency / Wild Running Latency / Audiogenic Response Score: mean ± SEM; for Clonic Convulsion Latency / Tonic Extension Latency / Wild Running Latency: maximum 60 s; for Audiogenic Response Score: score 0-4; for change in number of mice showing clonic convulsions / change in number of mice showing tonic convulsions / increase in latency to clonic convulsions / increase in latency to tonic convulsions / reduction of overall audiogenic response score: versus vehicle controls; for anticonvulsant activity in the audiogenic seizure test: (R/S)-fenfluramine at 15 and 30 mg/kg, (R)-fenfluramine at 30 mg/kg
Method: DBA/2 is a widely used inbred strain of mouse susceptible to audiogenic seizures due to the asp2 mutation. […] The objective of this study was to evaluate the anticonvulsant activity of (R/S)-fenfluramine and to compare it to (R)-fenfluramine in the DBA/2 mouse.
The method follows that described by Dilrmuiller et al., Neuroreport 4(6):683-686. Mice (DBA/2, 3-4 weeks old) were individually transferred (at 3-5 minute intervals) from the preparation room into an adjacent experimental room and placed in a Plexiglas™ jar (Diameter=40 cm; Height=35 cm) mounted with an electric bell (110-120 dB). Upon activating the bell, the occurrences and latencies to wild running fits, clonic and tonic seizures were measured. The number of deaths was also recorded. An audiogenic response score was assigned to each mouse as 0 (no seizure), 1 (wild running), 2 (clonic convulsion), 3 (tonic extension), or 4 (death). The bell was activated until a tonic seizure occurred or for a maximum of 60 seconds. Ten (10) mice were studied per group. The test was performed blind. All test compounds were dissolved in 0.9% saline (vehicle) and were administered by intraperitoneal (IP) injection at a dose volume of 10 mL/kg. Vehicle alone, (R/S)-fenfluramine (15 or 30 mg/kg) or (R)-fenfluramine (30 mg/kg) were administered 60 minutes prior to seizure induction. The positive reference compound (valproate; 180 mg/kg) was administered 30 minutes prior to seizure induction.

SMILES	Brain concentration [1]	Plasma concentration [1]	Clonic Convulsion Incidence (DBA/2 mice; 30 mg/kg IP) [%]	Tonic Extension Incidence (DBA/2 mice; 30 mg/kg IP) [%]	Wild Running Incidence (DBA/2 mice; 30 mg/kg IP) [%]	Clonic Convulsion Latency (DBA/2 mice; 30 mg/kg IP) [s]	Tonic Extension Latency (DBA/2 mice; 30 mg/kg IP) [s]	Wild Running Latency (DBA/2 mice; 30 mg/kg IP) [s]	Audiogenic Response Score (DBA/2 mice; 30 mg/kg IP)	change in number of mice showing clonic convulsions (DBA/2 mice; 30 mg/kg IP) [%]	change in number of mice showing tonic convulsions (DBA/2 mice; 30 mg/kg IP) [%]	increase in latency to clonic convulsions (DBA/2 mice; 30 mg/kg IP)	increase in latency to tonic convulsions (DBA/2 mice; 30 mg/kg IP)	reduction of overall audiogenic response score (DBA/2 mice; 30 mg/kg IP) [%]	anticonvulsant activity in the audiogenic seizure test (DBA/2 mice)	further results
CCN[C@H](C)Cc1cccc(C(F)(F)F)c1 [(R)-fenfluramine, (R)—N-ethyl-1-(3-(trifluoromethyl)phenyl)propan-2-amine]	193.7 μM and 44797 ng/g	15.02 μM and 3474 ng/g	60	0	100	31.9 ± 7.7	60.0 ± 0.0	5.0 ± 1.4	1.6 ± 0.16	−40	−100	+450%	+641%	50	clear anticonvulsant activity	
CCNC(C)Cc1cccc(C(F)(F)F)c1 (racemic) [(rac)-fenfluramine, (R/S)—N-ethyl-1-(3-(trifluoromethyl)phenyl)propan-2-amine]	146.5 μM and 33870 ng/g	10.74 μM and 2484 ng/g	10	0	80	55.3 ± 4.8	60.0 ± 0.0	16.6 ± 7.4	0.9 ± 0.18	−90	−100	+853%	+641%	72	clear anticonvulsant activity	Clonic Convulsion Incidence (DBA/2 mice; 15 mg/kg IP): 60%; Tonic Extension Incidence (DBA/2 mice; 15 mg/kg IP): 0%; Wild Running Incidence (DBA/2 mice; 15 mg/kg IP): 100%; Clonic Convulsion Latency (DBA/2 mice; 15 mg/kg IP): 31.4 ± 7.8 s; Tonic Extension Latency (DBA/2 mice; 15 mg/kg IP): 60.0 ± 0.0 s; Wild Running Latency (DBA/2 mice; 15 mg/kg IP): 4.0 ± 0.7 s; Audiogenic Response Score (DBA/2 mice; 15 mg/kg IP): 1.6 ± 0.16; change in number of mice showing clonic convulsions (DBA/2 mice; 15 mg/kg IP): −40%; change in number of mice showing tonic convulsions (DBA/2 mice; 15 mg/kg IP): −100%; increase in latency to clonic convulsions (DBA/2 mice; 15 mg/kg IP): +441%; increase in latency to tonic convulsions (DBA/2 mice; 15 mg/kg IP): +641%; reduction of overall audiogenic response score (DBA/2 mice; 15 mg/kg IP): 50%
